Measurements published in paper PMC10211317, “Identification of ARUK2002821 as an isoform-selective PI5P4Kα inhibitor” (RSC Medicinal Chemistry, 2023).

Assays:
Assay in all cases: Premier Screen kinase panel (MRC PPU)
Assay type in all cases: biochemical
MKK1 = MKK1 (Homo sapiens, UniProt Q02750); conditions: MKK1 (Entrez MAP2K1), read-out: Residual activity (%)
Protocol: (§1) room temperature with shaking for 30 minutes. The kinase concentration in the eluates was measured by qPCR.
(§2) using ADP-GloTM assay at the MRC PPU International Centre for Kinase Profiling, University of Dundee.
(§3) Conducted by MRC PPU International Centre
(§4) Conducted by MRC PPU International Centre for […]

PAK4 = PAK4 (Homo sapiens, UniProt O96013); conditions: PAK4 (Entrez PAK4), read-out: Residual activity (%)
Protocol: as §1, §2, §3, §4

TAO1 = TAO1 (Homo sapiens, UniProt Q7L7X3); conditions: TAO1 (Entrez TAOK1), read-out: Residual activity (%)
Protocol: as §1, §2, §3, §4

BRSK1 = BRSK1 (Homo sapiens, UniProt Q8TDC3); conditions: BRSK1 (Entrez BRSK1), read-out: Residual activity (%)
Sequence of BRSK1 (Q8TDC3 whole entry): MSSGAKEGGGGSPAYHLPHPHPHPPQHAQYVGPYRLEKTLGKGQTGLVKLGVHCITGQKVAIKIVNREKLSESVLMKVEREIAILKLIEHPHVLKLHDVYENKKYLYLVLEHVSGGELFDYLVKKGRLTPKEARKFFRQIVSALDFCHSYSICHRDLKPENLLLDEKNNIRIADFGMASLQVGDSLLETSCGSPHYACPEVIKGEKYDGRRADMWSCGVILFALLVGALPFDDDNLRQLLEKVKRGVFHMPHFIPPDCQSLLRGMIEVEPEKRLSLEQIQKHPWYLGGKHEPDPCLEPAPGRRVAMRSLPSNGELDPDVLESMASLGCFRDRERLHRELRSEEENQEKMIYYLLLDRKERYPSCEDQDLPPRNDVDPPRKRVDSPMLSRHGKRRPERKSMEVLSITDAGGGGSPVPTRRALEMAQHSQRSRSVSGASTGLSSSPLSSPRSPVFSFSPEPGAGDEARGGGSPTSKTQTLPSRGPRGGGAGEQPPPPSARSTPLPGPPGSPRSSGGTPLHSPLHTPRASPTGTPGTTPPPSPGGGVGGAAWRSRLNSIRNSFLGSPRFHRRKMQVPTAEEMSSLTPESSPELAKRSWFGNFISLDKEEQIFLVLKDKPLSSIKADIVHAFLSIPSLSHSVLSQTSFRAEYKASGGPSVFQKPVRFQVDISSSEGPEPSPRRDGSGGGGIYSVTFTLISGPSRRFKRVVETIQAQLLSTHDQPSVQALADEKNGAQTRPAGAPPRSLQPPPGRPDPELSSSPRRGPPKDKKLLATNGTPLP
Protocol: as §1, §2, §3, §4

SmMLCK = SmMLCK (Homo sapiens, UniProt Q15746); conditions: SmMLCK (Entrez MYLK), read-out: Residual activity (%)
Protocol: as §1, §2, §3, §4

MEKK1 = MEKK1 (Homo sapiens, UniProt Q13233); conditions: MEKK1 (Entrez MAP3K1), read-out: Residual activity (%)
Protocol: as §1, §2, §3, §4

DYRK2 = DYRK2 (Homo sapiens, UniProt Q92630); conditions: DYRK2 (Entrez DYRK2), read-out: Residual activity (%)
Protocol: as §1, §2, §3, §4

DYRK3 = DYRK3 (Homo sapiens, UniProt O43781); conditions: DYRK3 (Entrez DYRK3), read-out: Residual activity (%)
Protocol: as §1, §2, §3, §4

NEK6 = NEK6 (Homo sapiens, UniProt Q9HC98); conditions: NEK6 (Entrez NEK6), read-out: Residual activity (%)
Sequence of NEK6 (Q9HC98 whole entry): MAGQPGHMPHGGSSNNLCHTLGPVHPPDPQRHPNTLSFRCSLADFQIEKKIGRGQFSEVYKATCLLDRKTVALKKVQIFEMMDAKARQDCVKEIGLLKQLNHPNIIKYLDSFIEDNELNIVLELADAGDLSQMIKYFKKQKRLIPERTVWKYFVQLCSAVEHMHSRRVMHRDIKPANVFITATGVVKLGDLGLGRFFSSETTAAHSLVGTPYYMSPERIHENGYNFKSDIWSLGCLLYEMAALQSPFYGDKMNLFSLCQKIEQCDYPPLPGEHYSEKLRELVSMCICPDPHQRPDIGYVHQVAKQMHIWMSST
Protocol: as §1, §2, §3, §4

VEG-FR = VEG-FR (Homo sapiens, UniProt P17948); conditions: VEG-FR (Entrez FLT1), read-out: Residual activity (%)
Protocol: as §1, §2, §3, §4

p38b MAPK = p38b MAPK (Homo sapiens, UniProt Q15759); conditions: p38b MAPK (Entrez MAPK11), read-out: Residual activity (%)
Protocol: as §1, §2, §3, §4

ABL = ABL (Homo sapiens, UniProt P00519); conditions: ABL (Entrez ABL1), read-out: Residual activity (%)
Protocol: as §1, §2, §3, §4

CLK2 = CLK2 (Homo sapiens, UniProt P49760); conditions: CLK2 (Entrez CLK2), read-out: Residual activity (%)
Protocol: as §1, §2, §3, §4

MAP4K5 = MAP4K5 (Homo sapiens, UniProt Q9Y4K4); conditions: MAP4K5 (Entrez MAP4K5), read-out: Residual activity (%)
Protocol: as §1, §2, §3, §4

TTBK2 = TTBK2 (Homo sapiens, UniProt Q6IQ55); conditions: TTBK2 (Entrez TTBK2), read-out: Residual activity (%)
Protocol: as §1, §2, §3, §4

GCK = GCK (Homo sapiens, UniProt Q12851); conditions: read-out: Residual activity (%)
Sequence of GCK (Q12851 whole entry): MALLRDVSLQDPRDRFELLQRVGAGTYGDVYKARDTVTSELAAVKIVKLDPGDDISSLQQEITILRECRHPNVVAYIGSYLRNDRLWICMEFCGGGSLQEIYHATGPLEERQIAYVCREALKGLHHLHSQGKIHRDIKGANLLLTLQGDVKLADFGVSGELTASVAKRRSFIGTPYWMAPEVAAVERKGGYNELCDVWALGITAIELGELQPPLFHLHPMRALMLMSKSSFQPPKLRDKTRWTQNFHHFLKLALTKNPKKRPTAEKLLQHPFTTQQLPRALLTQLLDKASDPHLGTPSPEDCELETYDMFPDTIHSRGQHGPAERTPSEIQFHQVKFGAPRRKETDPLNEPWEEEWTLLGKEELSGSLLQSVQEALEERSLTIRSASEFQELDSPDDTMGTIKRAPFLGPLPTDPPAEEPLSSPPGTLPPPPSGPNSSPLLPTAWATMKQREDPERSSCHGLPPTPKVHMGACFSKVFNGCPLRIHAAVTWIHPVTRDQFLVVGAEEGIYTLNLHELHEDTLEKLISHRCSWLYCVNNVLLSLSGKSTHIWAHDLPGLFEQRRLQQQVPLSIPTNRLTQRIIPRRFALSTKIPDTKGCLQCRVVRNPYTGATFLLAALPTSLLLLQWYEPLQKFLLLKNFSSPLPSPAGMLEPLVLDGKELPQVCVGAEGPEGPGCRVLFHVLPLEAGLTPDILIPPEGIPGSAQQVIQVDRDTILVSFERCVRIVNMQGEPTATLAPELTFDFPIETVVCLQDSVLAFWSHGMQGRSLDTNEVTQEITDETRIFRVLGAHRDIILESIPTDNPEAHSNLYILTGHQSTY
Protocol: as §1, §2, §3, §4

EPH-A2 = EPH-A2 (Homo sapiens, UniProt P29317); conditions: EPH-A2 (Entrez EPHA2), read-out: Residual activity (%)
Protocol: as §1, §2, §3, §4

MARK1 = MARK1 (Homo sapiens, UniProt Q9P0L2); conditions: MARK1 (Entrez MARK1), read-out: Residual activity (%)
Sequence of MARK1 (Q9P0L2 whole entry): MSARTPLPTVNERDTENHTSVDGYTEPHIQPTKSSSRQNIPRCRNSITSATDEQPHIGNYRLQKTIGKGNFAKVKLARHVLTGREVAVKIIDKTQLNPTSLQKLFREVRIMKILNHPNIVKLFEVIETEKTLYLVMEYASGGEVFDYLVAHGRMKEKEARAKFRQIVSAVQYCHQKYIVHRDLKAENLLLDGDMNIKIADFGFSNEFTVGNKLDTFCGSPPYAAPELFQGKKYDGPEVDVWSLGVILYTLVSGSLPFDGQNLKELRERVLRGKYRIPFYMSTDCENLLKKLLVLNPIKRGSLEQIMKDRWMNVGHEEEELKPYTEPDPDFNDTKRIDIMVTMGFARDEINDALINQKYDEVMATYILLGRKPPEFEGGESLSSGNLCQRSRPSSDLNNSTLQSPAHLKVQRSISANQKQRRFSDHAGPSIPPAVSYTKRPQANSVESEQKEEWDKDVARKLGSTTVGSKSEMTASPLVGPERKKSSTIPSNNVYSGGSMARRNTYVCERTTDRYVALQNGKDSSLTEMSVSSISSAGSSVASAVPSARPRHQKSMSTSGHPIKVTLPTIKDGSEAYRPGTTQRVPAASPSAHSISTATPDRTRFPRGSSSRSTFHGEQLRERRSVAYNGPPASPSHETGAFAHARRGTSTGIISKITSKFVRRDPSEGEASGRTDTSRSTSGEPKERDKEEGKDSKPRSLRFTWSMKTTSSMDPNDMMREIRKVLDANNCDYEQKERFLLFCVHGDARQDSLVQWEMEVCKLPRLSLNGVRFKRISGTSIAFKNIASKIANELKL
Protocol: as §1, §2, §3, §4

ERK1 = ERK1 (Homo sapiens, UniProt P27361); conditions: ERK1 (Entrez MAPK3), read-out: Residual activity (%)
Protocol: as §1, §2, §3, §4

CSK = CSK (Homo sapiens, UniProt P41240); conditions: CSK (Entrez CSK), read-out: Residual activity (%)
Protocol: as §1, §2, §3, §4

DDR2 = DDR2 (Homo sapiens, UniProt Q16832); conditions: DDR2 (Entrez DDR2), read-out: Residual activity (%)
Protocol: as §1, §2, §3, §4

ULK1 = ULK1 (Homo sapiens, UniProt O75385); conditions: ULK1 (Entrez ULK1), read-out: Residual activity (%)
Protocol: as §1, §2, §3, §4

MLK3 = MLK3 (Homo sapiens, UniProt Q16584); conditions: MLK3 (Entrez MAP3K11), read-out: Residual activity (%)
Protocol: as §1, §2, §3, §4

ROCK 2 = ROCK 2 (Rattus norvegicus, UniProt Q62868); conditions: ROCK 2 (Entrez ROCK2), read-out: Residual activity (%)
Protocol: as §1, §2, §3, §4

PKD1 = PKD1 (Homo sapiens, UniProt Q15139); conditions: PKD1 (Entrez PKD1), read-out: Residual activity (%)
Protocol: as §1, §2, §3, §4

MINK1 = MINK1 (Homo sapiens, UniProt Q8N4C8); conditions: MINK1 (Entrez MINK1), read-out: Residual activity (%)
Protocol: as §1, §2, §3, §4

GSK3b = GSK3b (Homo sapiens, UniProt P49841); conditions: GSK3b (Entrez GSK3B), read-out: Residual activity (%)
Protocol: as §1, §2, §3, §4

CAMKKb = CAMKKb (Homo sapiens, UniProt Q96RR4); conditions: CAMKKb (Entrez CAMKK2), read-out: Residual activity (%)
Protocol: as §1, §2, §3, §4

EIF2AK3 = EIF2AK3 (Homo sapiens, UniProt Q9NZJ5); conditions: EIF2AK3 (Entrez EIF2AK3), read-out: Residual activity (%)
Protocol: as §1, §2, §3, §4

JAK3 = JAK3 (Homo sapiens, UniProt P52333); conditions: JAK3 (Entrez JAK3), read-out: Residual activity (%)
Sequence of JAK3 (P52333 whole entry, species assumed): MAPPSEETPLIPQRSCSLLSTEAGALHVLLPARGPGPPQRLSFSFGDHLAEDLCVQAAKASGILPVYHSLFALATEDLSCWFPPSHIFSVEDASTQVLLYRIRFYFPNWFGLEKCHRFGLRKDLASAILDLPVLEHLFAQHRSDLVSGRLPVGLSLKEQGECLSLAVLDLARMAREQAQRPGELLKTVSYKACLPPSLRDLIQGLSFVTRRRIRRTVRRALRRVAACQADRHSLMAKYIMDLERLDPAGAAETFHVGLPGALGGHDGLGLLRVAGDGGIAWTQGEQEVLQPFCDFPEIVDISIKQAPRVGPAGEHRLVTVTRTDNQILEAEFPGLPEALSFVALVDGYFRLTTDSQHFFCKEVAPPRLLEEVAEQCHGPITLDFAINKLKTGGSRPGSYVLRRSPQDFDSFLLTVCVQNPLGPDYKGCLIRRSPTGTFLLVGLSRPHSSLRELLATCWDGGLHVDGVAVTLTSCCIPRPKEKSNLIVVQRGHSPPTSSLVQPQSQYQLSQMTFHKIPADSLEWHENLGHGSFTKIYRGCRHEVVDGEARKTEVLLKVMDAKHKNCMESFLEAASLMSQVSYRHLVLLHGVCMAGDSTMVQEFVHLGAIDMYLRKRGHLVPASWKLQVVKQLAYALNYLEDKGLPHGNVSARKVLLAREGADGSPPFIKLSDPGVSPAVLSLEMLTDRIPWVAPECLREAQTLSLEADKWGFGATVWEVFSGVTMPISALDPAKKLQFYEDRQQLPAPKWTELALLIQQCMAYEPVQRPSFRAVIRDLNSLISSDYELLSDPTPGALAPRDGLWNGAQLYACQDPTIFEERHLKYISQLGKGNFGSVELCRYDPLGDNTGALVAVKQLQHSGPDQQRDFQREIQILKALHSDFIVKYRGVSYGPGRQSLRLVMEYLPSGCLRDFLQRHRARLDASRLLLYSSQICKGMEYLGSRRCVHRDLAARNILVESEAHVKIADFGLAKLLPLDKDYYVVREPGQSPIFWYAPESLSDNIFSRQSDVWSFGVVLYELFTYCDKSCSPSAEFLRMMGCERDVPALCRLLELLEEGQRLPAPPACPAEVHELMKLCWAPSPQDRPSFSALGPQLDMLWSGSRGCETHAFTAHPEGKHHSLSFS
Protocol: as §1, §2, §3, §4

MARK2 = MARK2 (Homo sapiens, UniProt Q7KZI7); conditions: MARK2 (Entrez MARK2), read-out: Residual activity (%)
Sequence of MARK2 (Q7KZI7 whole entry, species assumed): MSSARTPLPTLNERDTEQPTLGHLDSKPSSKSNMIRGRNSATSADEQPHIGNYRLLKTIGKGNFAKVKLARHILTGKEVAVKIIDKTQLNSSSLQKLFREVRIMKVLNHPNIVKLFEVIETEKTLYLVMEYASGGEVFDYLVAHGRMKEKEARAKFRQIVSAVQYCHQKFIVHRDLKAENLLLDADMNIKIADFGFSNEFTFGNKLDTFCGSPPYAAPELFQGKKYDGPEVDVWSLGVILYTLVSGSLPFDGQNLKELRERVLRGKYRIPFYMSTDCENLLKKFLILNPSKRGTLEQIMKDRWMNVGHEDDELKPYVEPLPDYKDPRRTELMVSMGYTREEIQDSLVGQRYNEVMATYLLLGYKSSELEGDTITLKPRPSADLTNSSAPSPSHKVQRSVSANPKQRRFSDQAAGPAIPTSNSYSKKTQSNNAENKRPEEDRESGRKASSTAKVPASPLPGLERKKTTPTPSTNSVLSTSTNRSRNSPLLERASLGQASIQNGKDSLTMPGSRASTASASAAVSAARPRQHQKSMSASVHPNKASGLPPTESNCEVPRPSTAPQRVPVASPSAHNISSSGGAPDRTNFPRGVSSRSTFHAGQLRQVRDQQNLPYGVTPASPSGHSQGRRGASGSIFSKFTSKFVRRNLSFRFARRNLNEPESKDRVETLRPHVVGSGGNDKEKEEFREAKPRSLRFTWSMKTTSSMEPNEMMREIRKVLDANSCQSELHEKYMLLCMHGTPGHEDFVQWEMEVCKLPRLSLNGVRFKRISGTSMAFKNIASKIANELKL
Protocol: as §1, §2, §3, §4

Sequence of MKK1 (Q02750 whole entry): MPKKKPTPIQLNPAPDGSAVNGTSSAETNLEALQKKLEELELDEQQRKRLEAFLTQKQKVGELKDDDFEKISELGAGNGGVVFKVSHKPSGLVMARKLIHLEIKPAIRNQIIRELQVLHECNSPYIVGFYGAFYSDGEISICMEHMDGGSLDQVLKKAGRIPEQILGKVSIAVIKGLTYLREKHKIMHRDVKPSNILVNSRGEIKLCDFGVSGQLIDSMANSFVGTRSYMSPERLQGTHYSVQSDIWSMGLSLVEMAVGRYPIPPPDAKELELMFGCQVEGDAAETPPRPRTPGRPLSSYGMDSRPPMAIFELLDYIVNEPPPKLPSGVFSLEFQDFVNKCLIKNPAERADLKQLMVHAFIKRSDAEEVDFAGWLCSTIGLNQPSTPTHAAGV

COc1ccc(Nc2ncnc3c2ccn3-c2ccc(C)c(C)c2)cc1Cl [compound 36]
remaining activity at 1 µM (MKK1): 112%
remaining activity at 1 µM (PAK4): 78%
remaining activity at 1 µM (TAO1): 111%
remaining activity at 1 µM (BRSK1): 97%
remaining activity at 1 µM (SmMLCK): 99%
remaining activity at 1 µM (MEKK1): 115%
remaining activity at 1 µM (DYRK2): 108%
remaining activity at 1 µM (DYRK3): 68%
remaining activity at 1 µM (NEK6): 104%
remaining activity at 1 µM (VEG-FR): 99%
remaining activity at 1 µM (p38b MAPK): 103%
remaining activity at 1 µM (ABL): 89%
remaining activity at 1 µM (CLK2): 107%
remaining activity at 1 µM (MAP4K5): 80%
remaining activity at 1 µM (TTBK2): 70%
remaining activity at 1 µM (GCK): 105%
remaining activity at 1 µM (EPH-A2): 83%
remaining activity at 1 µM (MARK1): 113%
remaining activity at 1 µM (ERK1): 62%
remaining activity at 1 µM (CSK): 104%
remaining activity at 1 µM (DDR2): 115%
remaining activity at 1 µM (ULK1): 102%
remaining activity at 1 µM (MLK3): 83%
remaining activity at 1 µM (ROCK 2): 96%
remaining activity at 1 µM (PKD1): 93%
remaining activity at 1 µM (MINK1): 107%
remaining activity at 1 µM (GSK3b): 102%
remaining activity at 1 µM (CAMKKb): 96%
remaining activity at 1 µM (EIF2AK3): 76%
remaining activity at 1 µM (JAK3): 63%
remaining activity at 1 µM (MARK2): 127%
